We go through three compounds from paper PMC3760277 (Journal of neurovirology, 2013).

For data set [1] the following is noted: rats; background statement, ref not given; cited from earlier work.
For data set [2], the system named is HIV-1. Nature of the data set: Plasma viral load during the 21-day study. It is filed as in vivo, HIV-infected patients (human). As to conditions: day 21, antiretroviral therapy (ATV/RTV + TDF/FTC) with concurrent CEP-1347 50 mg twice daily; baseline 3.80±3.70.
A short description of data set [3]: Safety and tolerability in the clinical study. It is filed as in vivo, HIV-infected patients (human). Conditions: CEP-1347 50 mg twice daily for 20 days with ATV/RTV and TDF/FTC.
For data set [4] the following is noted: monkeys; background statement, ref not given; cited from earlier work.
Data set [5] is described as follows: Steady-state plasma pharmacokinetics. It is filed as in vivo, HIV-infected patients (human). Conditions: for AUC(0-t): AUC0–24, Visit 2 (day 21), ATV/RTV 300/100 mg once daily with CEP-1347 50 mg twice daily, arithmetic mean (SD), n=19.
For data set [6] the following is noted: cited from earlier work.
[7] abbreviates: CEP-1347 50 mg twice daily with ATV/r, day 21, mean (SD).

Like-named read-outs stand apart in the source and are kept apart here.

Consider `CCSCc1ccc2c(c1)c1c3c(c4c5cc(CSCC)ccc5n5c4c1n2[C@H]1C[C@](O)(C(=O)OC)[C@]5(C)O1)CNC3=O` [CEP-1347], for which the “recovery of single oral doses in feces” value in data set [1] is “at least 95%”. In addition, the “average plasma viral load” value in data set [2] is recorded as 2.41±2.03 log copies/mL. Besides, in data set [3], the tolerability entry is “well tolerated”. Also, the “recovery of single oral doses in feces” value in data set [4] is given as “at least 95%”. For the same compound, in data set [5] (setting [7]), the Clss/F is 22.3 (15.3) L/h and the “R (accumulation ratio)” value was 5.1 (1.5). Besides, in data set [5] (human, plasma, oral, 50 mg), the AUC came to 2630 ng·h/mL, the Cmax stood at 427 ng/mL, the Tmax is 3 h and the half-life stood at 35.2 h.
On to `COC(=O)N[C@H](C(=O)N[C@@H](Cc1ccccc1)[C@@H](O)CN(Cc1ccc(-c2ccccn2)cc1)NC(=O)[C@@H](NC(=O)OC)C(C)(C)C)C(C)(C)C` [ATV, Atazanavir], for which the clearance in data set [6] (population analysis, patients given ATV/r at 300/100 mg/day, ref Colombo et al. 2006) is 12.9 L/h. Moreover, the clearance in data set [6] (previously reported in patients, ref Haberl et al. 2010) was 8.5 L/h. In addition, in data set [5] (Visit 1 (day 1), ATV/RTV before CEP-1347, mean (SD)), the Clss/F was 12.0 (10.3) L/h. Besides, in data set [5] (Visit 1 (day 1), ATV/RTV before CEP-1347, mean (SD), listed as atazanavir), the Clss/F worked out at 12.0 L/h. Further, in data set [5] (Visit 2 (day 21), ATV/RTV with CEP-1347 50 mg twice daily, mean (SD)), the Clss/F is reported as 9.3 (10.7) L/h. In data set [5] (human, in vivo), the “AUC0–24 GMR (90 % CI)” value is given as 1.30 (0.92–1.85), the “Clss/F GMR (90 % CI)” value was 0.77 (0.54–1.09), the “Cmax GMR (90 % CI)” value is recorded as 1.14 (0.79–1.67) and the “R GMR (90 % CI)” value is on record as 1.12 (1.05–1.20). Also, in data set [5] (human, in vivo), the “Tmax GMR (90 % CI)” value is on record as 0.86 (0.67–1.11), the “increase in T1/2” value stood at 31% and the “increase in accumulation ratio (R)” value is on record as 15%. Also, in data set [5] (human, plasma, oral), the Cmax is 4000 ng/mL, the Tmax amounted to 2 h, the half-life was 12.7 h and the AUC(0-t) stood at 49600 ng·h/mL. Further, in data set [5] (human, plasma, oral, 50 mg), the Cmax was found to be 4500 ng/mL, the Tmax is 2 h and the half-life is 15.9 h.
As to `CC(C)c1nc(CN(C)C(=O)N[C@H](C(=O)N[C@@H](Cc2ccccc2)C[C@H](O)[C@H](Cc2ccccc2)NC(=O)OCc2cncs2)C(C)C)cs1` [RTV, Ritonavir], in data set [5] (human, in vivo), the “AUC0–24 GMR (90 % CI)” value is 1.12 (0.90, 1.39); the “Cmax GMR (90 % CI)” value was 1.07 (0.85, 1.34); the “R GMR (90 % CI)” value was 1.05 (0.94, 1.16); the “T1/2 GMR (90 % CI)” value is reported as 1.20 (0.92, 1.56). Further, the “Tmax GMR (90 % CI)” value in data set [5] (human, in vivo) is recorded as 0.89 (0.79, 1.15). In data set [5] (human, plasma, oral), this compound showed a Cmax of 1400 ng/mL, a half-life of 5.9 h and an AUC(0-t) of 13200 ng·h/mL. The compound also showed a half-life in data set [5] (human, plasma, oral, 50 mg) of 5.8 h.
